Where “and” joins values, the source holds several entries; their conditions need not be identical. Equal values may be shown once.
How the values were obtained:
[1] = 28‐day toxicity study in rats; cited from earlier work
[2] = Plasma pharmacokinetics of parenterally administered dutogliptin; type: in vivo, human; conditions: for AUC / AUC(0-inf) / Tmax / k el / half-life / bioavailability: human, plasma
[3] = biological target: DPP‐IV (Homo sapiens, UniProt P27487); assay: Plasma DPP-IV activity; type: in vivo; conditions: for Post‐dose DPP‐IV activity over 24 hours: day 0, mean
Chain of DPP‐IV (Homo sapiens, UniProt P27487) (P27487 39-766): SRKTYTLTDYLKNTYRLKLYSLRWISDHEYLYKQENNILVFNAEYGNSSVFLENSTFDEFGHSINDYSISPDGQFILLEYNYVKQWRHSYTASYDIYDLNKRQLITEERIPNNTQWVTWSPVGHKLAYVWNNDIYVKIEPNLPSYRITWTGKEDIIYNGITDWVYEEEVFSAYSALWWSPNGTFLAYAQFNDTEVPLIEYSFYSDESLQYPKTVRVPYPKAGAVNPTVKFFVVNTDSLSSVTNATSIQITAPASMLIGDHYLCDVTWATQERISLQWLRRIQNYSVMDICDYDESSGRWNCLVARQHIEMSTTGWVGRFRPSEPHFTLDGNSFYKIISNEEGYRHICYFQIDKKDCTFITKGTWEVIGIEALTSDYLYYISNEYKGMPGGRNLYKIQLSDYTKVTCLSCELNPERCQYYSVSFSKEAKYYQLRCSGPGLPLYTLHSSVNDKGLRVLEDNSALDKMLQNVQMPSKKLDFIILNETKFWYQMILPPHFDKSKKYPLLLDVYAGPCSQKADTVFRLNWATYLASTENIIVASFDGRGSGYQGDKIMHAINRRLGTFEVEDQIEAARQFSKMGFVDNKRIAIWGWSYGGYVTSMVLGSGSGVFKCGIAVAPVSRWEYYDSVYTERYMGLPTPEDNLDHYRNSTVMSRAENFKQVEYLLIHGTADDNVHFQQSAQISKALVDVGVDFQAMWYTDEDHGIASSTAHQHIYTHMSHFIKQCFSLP

[4] = test system: DPP‐IV; conditions: oral administration of 400 mg; cited from earlier work
[5] = 30 mg i.v. (n = 5), day 0, mean (SD)
[6] = 30 mg s.c. (n = 5), day 0, mean (SD)
[7] = 60 mg s.c. (n = 10), day 0, mean (SD)
[8] = 90 mg s.c. (n = 10), day 0, mean (SD)
[9] = 120 mg s.c. (n = 10), day 0, mean (SD)

O=C(CN[C@@H]1CCNC1)N1CCC[C@H]1B(O)O [dutogliptin]
No observed adverse effects level [1]: 30 mg/kg | Peak plasma concentration [2, 5]: 2352 (211) ng/mL | Peak plasma concentration [2, 6]: 1232 (97) ng/mL | Peak plasma concentration [2, 7]: 2757 (517) ng/mL | Peak plasma concentration [2, 8]: 3641 (672) ng/mL | Peak plasma concentration [2, 9]: 5093 ng/mL and 5093 (873) ng/mL | Increase in maximal plasma levels ([2]; 120 mg s.c. compared to 500 mg orally administered dutogliptin): > 6 fold | Maximum plasma concentration ([2]; 120 mg s.c. multiple dose, day 6 (n = 5), SD: 544): 6024 ng/mL | AUC ([2]; iv, 30 mg): 4080 ng·h/mL | AUC(0-inf) ([2]; iv, 30 mg): 4090 ng·h/mL | Tmax ([2]; iv, 30 mg): 0.08 h | k el ([2]; iv, 30 mg): 5.56e-05 s⁻¹ | half-life ([2]; iv, 30 mg, T1/2, 30 mg i.v. (n = 5), day 0, mean (SD)): 3.68 h | bioavailability ([2]; sc): ~100% | AUC ([2]; sc, 30 mg): 4050 ng·h/mL | AUC(0-inf) ([2]; sc, 30 mg): 4060 ng·h/mL | Tmax ([2]; sc, 30 mg): 0.7 h | bioavailability ([2]; sc, 30 mg): 99% | k el ([2]; sc, 30 mg): 5.83e-05 s⁻¹ | half-life ([2]; sc, 30 mg, T1/2, 30 mg s.c. (n = 5), day 0, mean (SD)): 3.37 h | AUC ([2]; sc, 60 mg): 9060 ng·h/mL | AUC(0-inf) ([2]; sc, 60 mg): 9110 ng·h/mL | Tmax ([2]; sc, 60 mg): 0.85 h | bioavailability ([2]; sc, 60 mg): 109% | k el ([2]; sc, 60 mg): 5.56e-05 s⁻¹ | half-life ([2]; sc, 60 mg, T1/2, 60 mg s.c. (n = 10), day 0, mean (SD)): 3.58 h | AUC ([2]; sc, 90 mg): 12200 ng·h/mL | AUC(0-inf) ([2]; sc, 90 mg): 12200 ng·h/mL | Tmax ([2]; sc, 90 mg): 0.85 h | bioavailability ([2]; sc, 90 mg): 96% | k el ([2]; sc, 90 mg): 5.56e-05 s⁻¹ | half-life ([2]; sc, 90 mg, T1/2, 90 mg s.c. (n = 10), day 0, mean (SD)): 3.64 h | AUC ([2]; sc, 120 mg): 17200 ng·h/mL | AUC(0-inf) ([2]; sc, 120 mg): 17300 ng·h/mL | Tmax ([2]; sc, 120 mg): 0.9 h | bioavailability ([2]; sc, 120 mg): 95% | k el ([2]; sc, 120 mg): 5.83e-05 s⁻¹ | half-life ([2]; sc, 120 mg, T1/2, 120 mg s.c. (n = 10), day 0, mean (SD)): 3.32 h | half-life ([2]; sc, Half‐life, subcutaneous injection, pooled, SD: 0.46): 3.49 h | Accumulation of the study drug ([2]; multiple injections at daily intervals): did not lead to the accumulation of the study drug | Post‐dose DPP‐IV activity over 24 hours ([3]; 30 mg i.v. (n = 5)): 37.83% | AUEC0‐24h [3, 5]: 908 (149) %*h | Lowest DPP‐IV activity [3, 5]: 7.63 (0.95) % | Time to maximum DPP‐IV inhibition ([3]; 30 mg intravenous): 0.5 h | Post‐dose DPP‐IV activity over 24 hours ([3]; 30 mg s.c. (n = 5)): 35.36% | AUEC0‐24h [3, 6]: 849 (74) %*h | Lowest DPP‐IV activity [3, 6]: 8.03 (1.76) % | Time to lowest DPP‐IV activity ([3]; 30 mg subcutaneous): ≤ 2 h | Post‐dose DPP‐IV activity over 24 hours ([3]; 60 mg s.c. (n = 10)): 22.42% | AUEC0‐24h [3, 7]: 538 (44) %*h | Lowest DPP‐IV activity [3, 7]: 7.67 (1.18) % | Time to lowest DPP‐IV activity ([3]; 60 mg subcutaneous): ≤ 2 h | Post‐dose DPP‐IV activity over 24 hours ([3]; 90 mg s.c. (n = 10)): 20.46% | AUEC0‐24h [3, 8]: 491 (86) %*h | Lowest DPP‐IV activity [3, 8]: 7.58 (1.17) % | Time to lowest DPP‐IV activity ([3]; 90 mg subcutaneous): ≤ 4 h | Post‐dose DPP‐IV activity over 24 hours ([3]; 120 mg s.c. (n = 10)): 17.96% | AUEC0‐24h [3, 9]: 431 (93) %*h | DPP‐IV inhibition over 24 hours ([3]; 120 mg s.c. multiple doses, day 6): 86% and > 86% | Maximum AUEC0‐24h ([3]; 120 mg s.c. multiple dosing cohort, day 6, SD: 73): 342 h % | Time to lowest DPP‐IV activity ([3]; 120 mg subcutaneous): ≤ 4 h | DPP‐IV activity reduced to ([3]; all participants receiving 60 mg or more subcutaneously): < 10% | Maximum DPP‐IV inhibition ([3]; all subjects receiving ≥60 mg): > 90% | Lowest DPP‐IV activity ([3]; day 0, subcutaneous administration overall, SD: 1.60): 7.19% | Inhibition of DPP‐IV activity [4]: approximately 85%
